{
  "source": "ChEMBL document CHEMBL5346934",
  "about": "(J Med Chem, 2023)",
  "assay_type_in_all_cases": "functional, organism-based",
  "key": {"[1]": {"system": "Vaccinia virus", "experiment": "Antiviral activity against Vaccinia virus infected in African green monkey CV-1 cells assessed as reduction in virus-induced cytopathic effect incubated for 5 days by colorimetric analysis", "conditions": "Orthopoxvirus vaccinia, CV-1, 120 h"}, "[2]": {"system": "Vaccinia virus", "experiment": "Antiviral activity against Vaccinia virus Copenhagen infected in African green monkey Vero cells measured after 4 days by colorimetric assay", "conditions": "Orthopoxvirus vaccinia, 96 h"}, "[3]": {"system": "Cowpox virus", "experiment": "Antiviral activity against Cowpox virus Grishak infected in African green monkey Vero cells measured after 4 days by colorimetric assay", "conditions": "96 h"}, "[4]": {"system": "Ectromelia virus", "experiment": "Antiviral activity against ectromelia virus K-1 infected in Vero cells measured after 4 days by colorimetric assay", "conditions": "K-1, Vero, 96 h"}},
  "data": [
    {"smiles": "CO[C@H]1[C@H](O)[C@H](O[C@H]2CC[C@@]3(C)[C@H](CC[C@@H]4[C@@H]3CC[C@]3(C)[C@@H](C5=CC(=O)OC5)CC[C@]43O)C2)O[C@@H](C)[C@@H]1O", "note": "[NERIIFOLIN]", "values": [
      {"measurement": "EC50", "setting": "[1]", "result": 5000, "unit": "nM"}
    ]},
    {"smiles": "CC1(C)[C@@H]2CC[C@@]1(C)[C@@H](NC(=O)c1ccc(Cl)cc1)C2", "values": [
      {"measurement": "IC50", "setting": "[2]", "result": 240, "unit": "nM"},
      {"measurement": "IC50", "setting": "[3]", "result": 2400, "unit": "nM"},
      {"measurement": "IC50", "setting": "[4]", "result": 600, "unit": "nM"}
    ]},
    {"smiles": "CC(=O)O[C@H]1C[C@H](O[C@H]2[C@@H](O)C[C@H](O[C@H]3[C@@H](O)C[C@H](O[C@H]4CC[C@@]5(C)[C@H](CC[C@@H]6[C@@H]5C[C@@H](O)[C@]5(C)[C@@H](C7=CC(=O)OC7)CC[C@]65O)C4)O[C@@H]3C)O[C@@H]2C)O[C@H](C)[C@H]1O[C@@H]1O[C@H](CO)[C@@H](O)[C@H](O)[C@H]1O", "note": "[LANATOSIDE C]", "values": [
      {"measurement": "EC50", "setting": "[1]", "result": 500, "unit": "nM"}
    ]},
    {"smiles": "CC1(C)[C@@H]2CC=C(C(=O)NC34CC5CC(CC(C5)C3)C4)[C@H]1C2", "values": [
      {"measurement": "IC50", "setting": "[2]", "result": 2500, "unit": "nM"},
      {"measurement": "IC50", "setting": "[3]", "result": 7200, "unit": "nM"},
      {"measurement": "IC50", "setting": "[4]", "result": 1700, "unit": "nM"}
    ]},
    {"smiles": "Cc1cccc(C)c1NC(=O)C(=O)NN1C(=O)C2C3C=CC(C4CC34)C2C1=O", "note": "(centres undefined)", "values": [
      {"measurement": "IC50", "setting": "[2]", "result": 1.28, "unit": "µg/mL"}
    ]},
    {"smiles": "CC1(C)/C(=N\\NC(=O)c2ccc(Cl)cc2)[C@]2(C)CC[C@H]1C2", "values": [
      {"measurement": "IC50", "setting": "[2]", "result": 900, "unit": "nM"},
      {"measurement": "IC50", "setting": "[3]", "result": 4900, "unit": "nM"},
      {"measurement": "IC50", "setting": "[4]", "result": 8000, "unit": "nM"}
    ]},
    {"smiles": "N=c1ccn2c(n1)O[C@H]1[C@H](O)[C@@H](CO)O[C@H]12", "note": "[ANCITABINE]", "values": [
      {"measurement": "EC50", "setting": "[1]", "result": 10000, "unit": "nM"}
    ]},
    {"smiles": "O=C(NN1C(=O)C2C3C=CC(C4CC34)C2C1=O)c1cc(Cl)cc(Cl)c1", "note": "(centres undefined)", "values": [
      {"measurement": "IC50", "setting": "[2]", "result": 0.95, "unit": "µg/mL"}
    ]},
    {"smiles": "CC[C@H]1CN2CCc3cc(OC)c(OC)cc3[C@@H]2CC1C[C@H]1NCCc2cc(O)c(OC)cc21", "note": "(some centres undefined)", "values": [
      {"measurement": "EC50", "setting": "[1]", "result": 125, "unit": "nM"}
    ]},
    {"smiles": "CC1(C)[C@@H]2CC[C@@]1(C)[C@@H](NC(=O)C1CCCCC1)C2", "values": [
      {"measurement": "IC50", "setting": "[2]", "result": 1400, "unit": "nM"},
      {"measurement": "IC50", "setting": "[3]", "result": 14400, "unit": "nM"},
      {"measurement": "IC50", "setting": "[4]", "result": 6200, "unit": "nM"}
    ]},
    {"smiles": "CC1(C)[C@@H]2CC=C(CCNC(=O)C34CC5CC(CC(C5)C3)C4)[C@H]1C2", "values": [
      {"measurement": "IC50", "setting": "[2]", "result": 1800, "unit": "nM"},
      {"measurement": "IC50", "setting": "[3]", "result": 4100, "unit": "nM"},
      {"measurement": "IC50", "setting": "[4]", "result": 1600, "unit": "nM"}
    ]},
    {"smiles": "CO[C@H]1C[C@H](O[C@H]2CC[C@]3(C=O)[C@H]4CC[C@]5(C)[C@@H](C6=CC(=O)OC6)CC[C@]5(O)[C@@H]4CC[C@]3(O)C2)O[C@H](C)[C@H]1O", "note": "[CYMARIN]", "values": [
      {"measurement": "EC50", "setting": "[1]", "result": 250, "unit": "nM"}
    ]},
    {"smiles": "CCCCCCCCCCCCCC[N+]12CC[N+](CCCC(=O)N[C@@H](Cc3c[nH]cn3)C(=O)O)(CC1)CC2", "values": [
      {"measurement": "EC50", "setting": "[1]", "result": 400000, "unit": "nM"}
    ]},
    {"smiles": "O=C(NN1C(=O)C2C3C=CC(C4CC34)C2C1=O)c1ccc(O)c([N+](=O)[O-])c1", "note": "(centres undefined)", "values": [
      {"measurement": "IC50", "setting": "[2]", "result": 0.38, "unit": "µg/mL"}
    ]},
    {"smiles": "COc1ccc(C[C@H]2NC[C@H](O)[C@H]2OC(C)=O)cc1", "note": "[ANISOMYCIN]", "values": [
      {"measurement": "EC50", "setting": "[1]", "result": 250, "unit": "nM"}
    ]},
    {"smiles": "C[C@@H]1C[C@@H]([C@H](O)CC2CC(=O)NC(=O)C2)C(=O)[C@@H](C)C1", "note": "[CYCLOHEXIMIDE]", "values": [
      {"measurement": "EC50", "setting": "[1]", "result": 2000, "unit": "nM"}
    ]},
    {"smiles": "C[C@@H]1O[C@@H](O[C@H]2C[C@@H](O)[C@]3(CO)[C@H]4[C@H](O)C[C@]5(C)[C@@H](C6=CC(=O)OC6)CC[C@]5(O)[C@@H]4CC[C@]3(O)C2)[C@H](O)[C@H](O)[C@H]1O", "note": "[OUABAIN]", "values": [
      {"measurement": "EC50", "setting": "[1]", "result": 250, "unit": "nM"}
    ]},
    {"smiles": "O=C(Nc1cccc(C(F)(F)F)c1)C(=O)NN1C(=O)C2C3C=CC(C4CC34)C2C1=O", "note": "(centres undefined)", "values": [
      {"measurement": "IC50", "setting": "[2]", "result": 1.3, "unit": "µg/mL"}
    ]},
    {"smiles": "CC[C@H]1CN2CCc3cc(OC)c(OC)cc3[C@@H]2C[C@@H]1C[C@H]1NCCc2cc(OC)c(OC)cc21", "note": "[EMETINE]", "values": [
      {"measurement": "EC50", "setting": "[1]", "result": 250, "unit": "nM"}
    ]},
    {"smiles": "CCCCCCCCCCCC[N+]12CC[N+](CC#CC[N+]34CC[N+](CCCCCCCCCCCC)(CC3)CC4)(CC1)CC2", "values": [
      {"measurement": "EC50", "setting": "[1]", "result": 100000, "unit": "nM"}
    ]},
    {"smiles": "CCCCCCCCCCOc1ccc(C(=O)NN2C(=O)C3C4C=CC(C5CC45)C3C2=O)cc1", "note": "(centres undefined)", "values": [
      {"measurement": "IC50", "setting": "[2]", "result": 1.7, "unit": "µg/mL"}
    ]},
    {"smiles": "COc1c(C)c2c(c(O)c1C/C=C(\\C)CCC(=O)O)C(=O)OC2", "note": "[MYCOPHENOLIC ACID]", "values": [
      {"measurement": "EC50", "setting": "[1]", "result": 1000, "unit": "nM"}
    ]},
    {"smiles": "C[C@H]1O[C@@H](O[C@H]2[C@@H](O)C[C@H](O[C@H]3[C@@H](O)C[C@H](O[C@H]4CC[C@@]5(C)[C@H](CC[C@@H]6[C@@H]5C[C@@H](O)[C@]5(C)[C@@H](C7=CC(=O)OC7)CC[C@]65O)C4)O[C@@H]3C)O[C@@H]2C)C[C@H](O)[C@@H]1O", "note": "[DIGOXIN]", "values": [
      {"measurement": "EC50", "setting": "[1]", "result": 250, "unit": "nM"}
    ]},
    {"smiles": "O=C(NN1C(=O)C2C3C=CC(C4CC34)C2C1=O)c1cc(Br)cc(Br)c1O", "note": "(centres undefined)", "values": [
      {"measurement": "IC50", "setting": "[2]", "result": 1.05, "unit": "µg/mL"}
    ]}
  ]
}
